Test results as given in article PMC5218480 (PLoS ONE, 2017).

System: MV-4-11 cells
Assay: Gene expression microarray analysis (Affymetrix PrimeView) and GSEA
Type: cell-based, human
Design: RFU PODN (11730768_x_at) / Fold change /veh PODN (11730768_x_at) / RFU LINC00158 (11744669_a_at) / Fold change /veh LINC00158 (11744669_a_at) / RFU DUSP10 (11751237_a_at) / Fold change /veh DUSP10 (11751237_a_at) / RFU ID3 (11757404_x_at) / Fold change /veh ID3 (11757404_x_at) / RFU PLEKHG5 (11737974_s_at) / Fold change /veh PLEKHG5 (11737974_s_at) / RFU LRRC4B (11730491_at) / Fold change /veh LRRC4B (11730491_at) / RFU GIMAP4 (11747438_a_at) / Fold change /veh GIMAP4 (11747438_a_at) / RFU KRT8 (11758183_x_at) / Fold change /veh KRT8 (11758183_x_at) / RFU CNN1 (11734310_a_at) / Fold change /veh CNN1 (11734310_a_at) / RFU VPS37D (11726825_at) / Fold change /veh VPS37D (11726825_at) / RFU C10orf10 (11716522_x_at) / Fold change /veh C10orf10 (11716522_x_at) / RFU KIR2DL2 /// KIR2DL4 /// KIR2DL5A /// KIR2DL5B /// KIR2DS1 /// KIR2DS2 /// KIR2DS3 /// KIR2DS4 /// KIR3DL3 /// KIR3DL3 /// KIR3DS1 (11738374_at) / Fold change /veh KIR2DL2 /// KIR2DL4 /// KIR2DL5A /// KIR2DL5B /// KIR2DS1 /// KIR2DS2 /// KIR2DS3 /// KIR2DS4 /// KIR3DL3 /// KIR3DL3 /// KIR3DS1 (11738374_at) / RFU C1QL1 (11718748_at) / Fold change /veh C1QL1 (11718748_at) / RFU TMPRSS4 (11747572_a_at) / Fold change /veh TMPRSS4 (11747572_a_at) / RFU HAMP (11756126_x_at) / Fold change /veh HAMP (11756126_x_at) / RFU RNFT2 (11725882_a_at) / Fold change /veh RNFT2 (11725882_a_at) / RFU NR4A2 (11747474_a_at) / Fold change /veh NR4A2 (11747474_a_at) / RFU ABCC12 (11746883_a_at) / Fold change /veh ABCC12 (11746883_a_at) / RFU TMEM136 (11760407_x_at) / Fold change /veh TMEM136 (11760407_x_at) / RFU CLDN22 /// WWC2 (11732394_at) / Fold change /veh CLDN22 /// WWC2 (11732394_at) / RFU HLA-DPB1 (11760878_x_at) / Fold change /veh HLA-DPB1 (11760878_x_at) / RFU SPINT1 (11716480_a_at) / Fold change /veh SPINT1 (11716480_a_at) / RFU GAP43 (11754022_s_at) / Fold change /veh GAP43 (11754022_s_at) / RFU A4GNT (11735810_at) / Fold change /veh A4GNT (11735810_at) / RFU PRB3 (11715151_x_at) / Fold change /veh PRB3 (11715151_x_at) / RFU TUBB4B (11761932_at) / Fold change /veh TUBB4B (11761932_at) / RFU CAPN14 (11732068_a_at) / Fold change /veh CAPN14 (11732068_a_at) / RFU TMCC2 (11721928_a_at) / Fold change /veh TMCC2 (11721928_a_at) / RFU IRGQ (11745062_a_at) / Fold change /veh IRGQ (11745062_a_at) / RFU FAM174B (11720279_a_at) / Fold change /veh FAM174B (11720279_a_at) / RFU TMPRSS4 (11748680_a_at) / Fold change /veh TMPRSS4 (11748680_a_at) / RFU FAM212B (11763350_a_at) / Fold change /veh FAM212B (11763350_a_at) / RFU PLEKHG5 (11743358_a_at) / Fold change /veh PLEKHG5 (11743358_a_at) / RFU ZSCAN30 (11745921_a_at) / Fold change /veh ZSCAN30 (11745921_a_at) / RFU CMKLR1 (11741424_a_at) / Fold change /veh CMKLR1 (11741424_a_at) / RFU LOC101060620 /// MAPK8IP1 (11723275_at) / Fold change /veh LOC101060620 /// MAPK8IP1 (11723275_at) / RFU SPTSSB (11747773_x_at) / Fold change /veh SPTSSB (11747773_x_at) / RFU PRSS12 (11739890_at) / Fold change /veh PRSS12 (11739890_at) / RFU BIN1 (11741810_x_at) / Fold change /veh BIN1 (11741810_x_at) / RFU WNT11 (11732464_a_at) / Fold change /veh WNT11 (11732464_a_at) / RFU C10orf10 (11716521_a_at) / Fold change /veh C10orf10 (11716521_a_at) / RFU C5orf56 (11738089_at) / Fold change /veh C5orf56 (11738089_at) / RFU CYB561 (11721691_x_at) / Fold change /veh CYB561 (11721691_x_at) / RFU ANKRD19P (11752326_a_at) / Fold change /veh ANKRD19P (11752326_a_at) / RFU OR2T12 /// OR2T33 /// OR2T8 (11738714_s_at) / Fold change /veh OR2T12 /// OR2T33 /// OR2T8 (11738714_s_at) / RFU VCAN (11748164_a_at) / Fold change /veh VCAN (11748164_a_at) / RFU JSRP1 (11732532_at) / Fold change /veh JSRP1 (11732532_at) / RFU KRTAP10-11 (11738290_x_at) / Fold change /veh KRTAP10-11 (11738290_x_at) / RFU MYO3A (11730013_a_at) / Fold change /veh MYO3A (11730013_a_at) / RFU EBF3 (11725865_a_at) / Fold change /veh EBF3 (11725865_a_at) / RFU CAMK2N1 (11719241_x_at) / Fold change /veh CAMK2N1 (11719241_x_at) / RFU C5orf56 (11738088_a_at) / Fold change /veh C5orf56 (11738088_a_at) / RFU OLFML3 (11715873_a_at) / Fold change /veh OLFML3 (11715873_a_at) / RFU LOC100653217 /// NTM (11731650_a_at) / Fold change /veh LOC100653217 /// NTM (11731650_a_at) / RFU MAPK11 (11762145_a_at) / Fold change /veh MAPK11 (11762145_a_at) / RFU FIZ1 (11724087_x_at) / Fold change /veh FIZ1 (11724087_x_at) / RFU OASL (11726364_x_at) / Fold change /veh OASL (11726364_x_at) / RFU SOX15 (11748057_x_at) / Fold change /veh SOX15 (11748057_x_at) / RFU CD79A (11719716_a_at) / Fold change /veh CD79A (11719716_a_at) / RFU HIST1H1D (11736915_at) / Fold change /veh HIST1H1D (11736915_at) / RFU CASKIN2 (11723855_a_at) / Fold change /veh CASKIN2 (11723855_a_at) / RFU LOC730098 (11760151_x_at) / Fold change /veh LOC730098 (11760151_x_at) / RFU OR4N2 (11742367_at) / Fold change /veh OR4N2 (11742367_at) / RFU PRRT2 (11749266_a_at) / Fold change /veh PRRT2 (11749266_a_at) / RFU SNX32 (11753110_a_at) / Fold change /veh SNX32 (11753110_a_at) / RFU CDHR5 (11726645_a_at) / Fold change /veh CDHR5 (11726645_a_at) / RFU RCAN1 (11760418_a_at) / Fold change /veh RCAN1 (11760418_a_at) / RFU FAM167A (11723789_a_at) / Fold change /veh FAM167A (11723789_a_at) / RFU FAM26E (11764081_at) / Fold change /veh FAM26E (11764081_at) / RFU ISYNA1 (11749810_s_at) / Fold change /veh ISYNA1 (11749810_s_at) / RFU ACY1 (11761880_at) / Fold change /veh ACY1 (11761880_at) / RFU 11764098_at / Fold change /veh 11764098_at / RFU SAMD14 (11745864_x_at) / Fold change /veh SAMD14 (11745864_x_at) / RFU NPB (11741838_a_at) / Fold change /veh NPB (11741838_a_at) / RFU TMPRSS6 (11731388_a_at) / Fold change /veh TMPRSS6 (11731388_a_at) / RFU KRTAP10-2 (11738614_at) / Fold change /veh KRTAP10-2 (11738614_at) / RFU ARHGAP8 /// PRR5-ARHGAP8 (11727945_x_at) / Fold change /veh ARHGAP8 /// PRR5-ARHGAP8 (11727945_x_at) / RFU KRTAP5-7 /// NADSYN1 (11734609_at) / Fold change /veh KRTAP5-7 /// NADSYN1 (11734609_at) / RFU RASL12 (11751679_a_at) / Fold change /veh RASL12 (11751679_a_at) / RFU CDKN2B (11736163_a_at) / Fold change /veh CDKN2B (11736163_a_at) / RFU PRF1 (11729649_at) / Fold change /veh PRF1 (11729649_at) / RFU, ZNF638 /// ZNF638-IT1 / Fold change vs veh, ZNF638 /// ZNF638-IT1 / RFU, PANK3 / Fold change vs veh, PANK3 / RFU, SH3YL1 / Fold change vs veh, SH3YL1 / RFU, ZEB2 / Fold change vs veh, ZEB2 / RFU, NRIP1 / Fold change vs veh, NRIP1 / RFU, PTTG1IP / Fold change vs veh, PTTG1IP / RFU, CAPN2 / Fold change vs veh, CAPN2 / RFU, MED14 / Fold change vs veh, MED14 / RFU, SNORA58 / Fold change vs veh, SNORA58 / RFU, C1orf63 / Fold change vs veh, C1orf63 / RFU, LRRFIP1 / Fold change vs veh, LRRFIP1 / RFU, NDUFAF7 / Fold change vs veh, NDUFAF7 / RFU, SLC12A2 / Fold change vs veh, SLC12A2 / RFU, IBTK / Fold change vs veh, IBTK / RFU, ESF1 / Fold change vs veh, ESF1 / Fold change vs veh, TMEM50B / RFU, TAOK1 / Fold change vs veh, TAOK1 / RFU, ACBD3 / Fold change vs veh, ACBD3 / RFU, TMA16 / Fold change vs veh, TMA16 / RFU, RWDD3 / Fold change vs veh, RWDD3 / RFU, BCAT1 / Fold change vs veh, BCAT1 / RFU, EDEM3 / Fold change vs veh, EDEM3 / RFU, TMEM33 / Fold change vs veh, TMEM33 / RFU, WDR75 / Fold change vs veh, WDR75 / RFU, AHCTF1 / Fold change vs veh, AHCTF1 / RFU, TFRC / Fold change vs veh, TFRC / RFU, ZDHHC17 / Fold change vs veh, ZDHHC17 / RFU, NOM1 / Fold change vs veh, NOM1 / RFU, ARL8B / Fold change vs veh, ARL8B / RFU, ZBTB11 / Fold change vs veh, ZBTB11 / RFU, TAMM41 / Fold change vs veh, TAMM41 / RFU, KIAA1704 /// LOC100996395 / Fold change vs veh, KIAA1704 /// LOC100996395 / RFU, ING1 / Fold change vs veh, ING1 / RFU, TRMT61B / Fold change vs veh, TRMT61B / RFU, FUBP3 / Fold change vs veh, FUBP3 / RFU, TP53 / Fold change vs veh, TP53 / RFU, TNKS2 / Fold change vs veh, TNKS2 / RFU, ZFP14 / Fold change vs veh, ZFP14 / RFU, ACTR2 / Fold change vs veh, ACTR2 / RFU, PPP3R1 / Fold change vs veh, PPP3R1 / RFU, PIK3R1 / Fold change vs veh, PIK3R1 / RFU, HNRNPA1 / Fold change vs veh, HNRNPA1 / RFU, RNF170 / Fold change vs veh, RNF170 / RFU, ZNF28 / Fold change vs veh, ZNF28 / RFU, RNGTT / Fold change vs veh, RNGTT / RFU, OGT / Fold change vs veh, OGT / RFU, BRD1 / Fold change vs veh, BRD1 / RFU, MARS / Fold change vs veh, MARS / RFU, ZNF655 / Fold change vs veh, ZNF655 / RFU, FAHD1 / Fold change vs veh, FAHD1 / RFU, BDP1 / Fold change vs veh, BDP1 / RFU, LRRCC1 / Fold change vs veh, LRRCC1 / RFU, ARID1A / Fold change vs veh, ARID1A / RFU, ZNF146 / Fold change vs veh, ZNF146 / RFU, ZNF330 / Fold change vs veh, ZNF330 / RFU, GPN3 / Fold change vs veh, GPN3 / RFU, C9orf123 / Fold change vs veh, C9orf123 / RFU, N4BP2L2 / Fold change vs veh, N4BP2L2 / RFU, ARFIP1 / Fold change vs veh, ARFIP1 / RFU, FAM179B / Fold change vs veh, FAM179B / RFU, BCL10 / Fold change vs veh, BCL10 / RFU, UHRF1BP1L / Fold change vs veh, UHRF1BP1L / RFU, BET1 / Fold change vs veh, BET1 / RFU, CNOT2 / Fold change vs veh, CNOT2 / RFU, ZNF268 / Fold change vs veh, ZNF268 / Fold change vs veh, ZNF507 / RFU, DGCR2 / Fold change vs veh, DGCR2 / RFU, WDSUB1 / Fold change vs veh, WDSUB1 / Fold change vs veh, HSP90B1 /// MIR3652 / RFU, ADSS / Fold change vs veh, ADSS / RFU, GK / Fold change vs veh, GK / RFU, ZNF148 / Fold change vs veh, ZNF148 / RFU, TAF9 / Fold change vs veh, TAF9 / RFU, SLC1A5 / Fold change vs veh, SLC1A5 / RFU, SLMO2 / Fold change vs veh, SLMO2 / RFU, ABCC4 / Fold change vs veh, ABCC4 / RFU, LOC101060439 /// RAP1B / Fold change vs veh, LOC101060439 /// RAP1B / RFU, RFX7 / Fold change vs veh, RFX7 / RFU, GTPBP10 / Fold change vs veh, GTPBP10 / RFU, CNEP1R1 / Fold change vs veh, CNEP1R1 / RFU, BIVM-ERCC5 /// ERCC5 / Fold change vs veh, BIVM-ERCC5 /// ERCC5 / RFU, ILF3 / Fold change vs veh, ILF3 / RFU 11762660_at / Fold change /veh 11762660_at / RFU VCAN (11757783_s_at) / Fold change /veh VCAN (11757783_s_at) / RFU DDX43 (11728927_at) / Fold change /veh DDX43 (11728927_at) / RFU KRT8 (11758188_x_at) / Fold change /veh KRT8 (11758188_x_at) / RFU NKD1 (11759106_at) / Fold change /veh NKD1 (11759106_at) / RFU SRD5A1 (11742802_a_at) / Fold change /veh SRD5A1 (11742802_a_at) / RFU TPSAB1 /// TPSB2 (11721975_s_at) / Fold change /veh TPSAB1 /// TPSB2 (11721975_s_at) / RFU GSTM3 (11746129_a_at) / Fold change /veh GSTM3 (11746129_a_at) / RFU IL23R (11737362_x_at) / Fold change /veh IL23R (11737362_x_at) / RFU TMEM51 (11727254_a_at) / Fold change /veh TMEM51 (11727254_a_at) / RFU PIWIL2 (11732686_x_at) / Fold change /veh PIWIL2 (11732686_x_at) / RFU ORM1 (11744905_x_at) / Fold change /veh ORM1 (11744905_x_at) / RFU CCDC152 (11743942_at) / Fold change /veh CCDC152 (11743942_at) / RFU ECM1 (11717891_a_at) / Fold change /veh ECM1 (11717891_a_at) / RFU IL23R (11748794_a_at) / Fold change /veh IL23R (11748794_a_at) / RFU TNFAIP8L3 (11732012_x_at) / Fold change /veh TNFAIP8L3 (11732012_x_at) / RFU MBOAT4 (11741988_at) / Fold change /veh MBOAT4 (11741988_at) / RFU 11764193_at / Fold change /veh 11764193_at / RFU TMEM53 (11763286_at) / Fold change /veh TMEM53 (11763286_at) / RFU MAGEB2 (11727129_at) / Fold change /veh MAGEB2 (11727129_at) / RFU TMEM200A (11744735_a_at) / Fold change /veh TMEM200A (11744735_a_at) / RFU CCDC152 (11751479_a_at) / Fold change /veh CCDC152 (11751479_a_at) / RFU FAM211A (11726209_a_at) / Fold change /veh FAM211A (11726209_a_at) / RFU RGS16 (11746705_a_at) / Fold change /veh RGS16 (11746705_a_at) / RFU VCAN (11755009_s_at) / Fold change /veh VCAN (11755009_s_at) / RFU RHOB (11743442_s_at) / Fold change /veh RHOB (11743442_s_at) / RFU RGS16 (11720943_a_at) / Fold change /veh RGS16 (11720943_a_at) / RFU RGS16 (11720944_at) / Fold change /veh RGS16 (11720944_at) / RFU, VPS4B / Fold change vs veh, VPS4B / RFU, CREB1 / Fold change vs veh, CREB1 / RFU, DNAJC13 / Fold change vs veh, DNAJC13 / RFU, GNAQ / Fold change vs veh, GNAQ / RFU, CDK5R1 / Fold change vs veh, CDK5R1 / RFU, ZRANB3 / Fold change vs veh, ZRANB3 / RFU, CUL4A / Fold change vs veh, CUL4A / RFU, CCNY / Fold change vs veh, CCNY / RFU, UFL1 / Fold change vs veh, UFL1 / RFU, COG3 / Fold change vs veh, COG3 / RFU, DIAPH2 / Fold change vs veh, DIAPH2 / RFU, SKA2 / Fold change vs veh, SKA2 / RFU, AFF3 / Fold change vs veh, AFF3 / RFU, LMF1 / Fold change vs veh, LMF1 / RFU, IPO11 / Fold change vs veh, IPO11 / RFU, DFFB / Fold change vs veh, DFFB / RFU, FOXP1 / Fold change vs veh, FOXP1 / RFU, CARD8 / Fold change vs veh, CARD8 / RFU, STRN3 / Fold change vs veh, STRN3 / RFU, ADK / Fold change vs veh, ADK / RFU, RASSF2 / Fold change vs veh, RASSF2 / RFU, WIPF1 / Fold change vs veh, WIPF1 / RFU, LARP1B / Fold change vs veh, LARP1B / RFU, RASA1 / Fold change vs veh, RASA1 / RFU, RB1 / Fold change vs veh, RB1 / RFU, PPFIA1 / Fold change vs veh, PPFIA1 / RFU, MAT2A / Fold change vs veh, MAT2A / RFU, CCT5 / Fold change vs veh, CCT5 / RFU, WDR92 / Fold change vs veh, WDR92 / RFU, CUX1 / Fold change vs veh, CUX1 / RFU, TTC7A / Fold change vs veh, TTC7A / RFU, TMEM135 / Fold change vs veh, TMEM135 / RFU, DEPTOR / Fold change vs veh, DEPTOR / RFU, CPM / Fold change vs veh, CPM / RFU, DNAJB6 / Fold change vs veh, DNAJB6 / RFU, CACNA2D3 / Fold change vs veh, CACNA2D3 / RFU, DTX4 / Fold change vs veh, DTX4 / RFU, TFCP2 / Fold change vs veh, TFCP2 / RFU, GMCL1 /// GMCL1P1 / Fold change vs veh, GMCL1 /// GMCL1P1 / RFU, AEBP2 / Fold change vs veh, AEBP2 / RFU, SNHG1 /// SNORD22 /// SNORD25 /// SNORD26 /// SNORD27 /// SNORD28 /// SNORD29 /// SNORD31 / Fold change vs veh, SNHG1 /// SNORD22 /// SNORD25 /// SNORD26 /// SNORD27 /// SNORD28 /// SNORD29 /// SNORD31 / Fold change (Aza/veh), C12orf56 (ProbeSet 11735607_a_at) / Fold change (ACY-1035/veh), C12orf56 (ProbeSet 11735607_a_at) / Fold change (Aza/veh), FGFR1OP (ProbeSet 11751329_s_at) / Fold change (ACY-1035/veh), FGFR1OP (ProbeSet 11751329_s_at) / Fold change (Aza/veh), VPS36 (ProbeSet 11739960_a_at) / Fold change (ACY-1035/veh), VPS36 (ProbeSet 11739960_a_at) / RFU SYPL1 (11715823_x_at) / Fold change /veh SYPL1 (11715823_x_at) / RFU IGFBP7 (11715501_s_at) / Fold change /veh IGFBP7 (11715501_s_at) / RFU REEP3 (11722064_at) / Fold change /veh REEP3 (11722064_at) / RFU IGLL1 (11728026_x_at) / Fold change /veh IGLL1 (11728026_x_at): dose or concentration left out as unconfirmed
Details: ProbeSet 11723475_a_at; LIST B

Question: How did the “RFU, TRMT61B” value turn out when `Nc1ccc(-c2cccs2)cc1NC(=O)c1ccc2c(c1)cc(C1CC1)n2CCN1CCOCC1` [ACY-1035] was run?
Answer: The value was 136.33 RFU.
